Test results taken from patent US20260284018A1, “DUAL INHIBITORS OF DYRK1A AND 5-HT2 FOR TREATING A BRAIN DISORDER” (THE REGENTS OF THE UNIVERSITY OF CALIFORNIA, priority 2023, published 2026).

Assays:
Test in all cases: KINOMEscan scanEDGE
Format in all cases: binding
Conditions in all cases: read-out: Percent Control
[1] = biological target: T1, FGFR2 (Homo sapiens, UniProt P21802)
T1 construct: purchased Eurofins DiscoverX
Description: (§1) Kinome Scan. Compound HTW_A_8 fumarate was screened against 97 kinases at a single concentration of 10 μM at Eurofins DiscoverX using their KINOMEscan™ scanEDGE assay. The results are reported as the % activity relative to DMSO control, where lower values indicate higher affinity. See Table 1 for the full kinome profile.

[2] = biological target: T2, FAK (Homo sapiens, UniProt Q05397)
T2 construct: purchased Eurofins DiscoverX
Description: as §1

[3] = biological target: T3, EGFR(L858R) (Homo sapiens, UniProt P00533, L858R)
T3 construct: purchased Eurofins DiscoverX
Description: as §1

[4] = biological target: T4, PAK4 (Homo sapiens, UniProt O96013)
T4 construct: purchased Eurofins DiscoverX (KINOMEscan scanEDGE service)
Description: as §1

[5] = biological target: T5, IGF1R (Homo sapiens, UniProt P08069)
T5 construct: purchased Eurofins DiscoverX
Description: as §1

[6] = biological target: T6, IKK-beta (Homo sapiens, UniProt O14920)
T6 construct: purchased Eurofins DiscoverX
Description: as §1

[7] = biological target: T7, GSK3B (Homo sapiens, UniProt P49841)
T7 construct: purchased Eurofins DiscoverX
Description: as §1

[8] = biological target: T8, ERBB4 (Homo sapiens, UniProt Q15303)
T8 construct: purchased Eurofins DiscoverX
Description: as §1

[9] = biological target: T9, CDK7 (Homo sapiens, UniProt P50613)
T9 construct: purchased Eurofins DiscoverX
Description: as §1

[10] = biological target: T10, CSNK1D (Homo sapiens, UniProt P48730)
T10 construct: purchased Eurofins DiscoverX
Description: as §1

[11] = biological target: T11, CDK9 (Homo sapiens, UniProt P50750)
T11 construct: purchased Eurofins DiscoverX
Description: as §1

[12] = biological target: T12, CDK2 (Homo sapiens, UniProt P24941)
T12 construct: purchased Eurofins DiscoverX
Description: as §1

[13] = biological target: T13, SNARK (Homo sapiens, UniProt Q9H093)
T13 construct: purchased Eurofins DiscoverX KINOMEscan scanEDGE
Description: as §1

[14] = biological target: T14, MET (Homo sapiens, UniProt P08581)
T14 construct: purchased Eurofins DiscoverX (KINOMEscan scanEDGE service)
Description: as §1

[15] = biological target: T15, PIK3CG (Homo sapiens, UniProt P48736)
T15 construct: purchased Eurofins DiscoverX (KINOMEscan scanEDGE service)
Description: as §1

[16] = biological target: T16, ERBB2 (Homo sapiens, UniProt P04626)
T16 construct: purchased Eurofins DiscoverX
Description: as §1

[17] = biological target: T17, PDGFRB (Homo sapiens, UniProt P09619)
T17 construct: purchased Eurofins DiscoverX (KINOMEscan scanEDGE service)
Description: as §1

[18] = biological target: T18, FGFR3 (Homo sapiens, UniProt P22607)
T18 construct: purchased Eurofins DiscoverX
Description: as §1

[19] = biological target: T19, RET (Homo sapiens, UniProt P07949)
T19 construct: purchased Eurofins DiscoverX KINOMEscan scanEDGE
Description: as §1

[20] = biological target: T20, TRKA (Homo sapiens, UniProt P04629)
T20 construct: purchased Eurofins DiscoverX KINOMEscan scanEDGE
Description: as §1

[21] = biological target: T21, YANK3 (Homo sapiens, UniProt Q86UX6)
T21 construct: purchased Eurofins DiscoverX KINOMEscan scanEDGE
Description: as §1

[22] = biological target: T22, CDK11 (Homo sapiens, UniProt Q9BWU1)
T22 construct: purchased Eurofins DiscoverX
Description: as §1

[23] = biological target: T23, RAF1 (Homo sapiens, UniProt P04049)
T23 construct: purchased Eurofins DiscoverX KINOMEscan scanEDGE
Description: as §1

[24] = biological target: T24, ROCK2 (Homo sapiens, UniProt O75116)
T24 construct: purchased Eurofins DiscoverX KINOMEscan scanEDGE
Description: as §1

[25] = biological target: T25, ABL1-nonphosphorylated (Homo sapiens, UniProt P00519)
T25 construct: purchased Eurofins DiscoverX
Description: as §1

[26] = biological target: T26, CHEK1 (Homo sapiens, UniProt O14757)
T26 construct: purchased Eurofins DiscoverX
Description: as §1

[27] = biological target: T27, BRAF (Homo sapiens, UniProt P15056)
T27 construct: purchased Eurofins DiscoverX
Description: as §1

[28] = biological target: T28, p38-beta (Homo sapiens, UniProt Q15759)
T28 construct: purchased Eurofins DiscoverX (KINOMEscan scanEDGE service)
Description: as §1

[29] = biological target: T29, BMPR2 (Homo sapiens, UniProt Q13873)
T29 construct: purchased Eurofins DiscoverX
Description: as §1

[30] = biological target: T30, PAK1 (Homo sapiens, UniProt Q13153)
T30 construct: purchased Eurofins DiscoverX (KINOMEscan scanEDGE service)
Description: as §1

[31] = biological target: T31, TIE2 (Homo sapiens, UniProt Q02763)
T31 construct: purchased Eurofins DiscoverX KINOMEscan scanEDGE
Description: as §1

[32] = biological target: T32, PIK3CA (Homo sapiens, UniProt P42336)
T32 construct: purchased Eurofins DiscoverX (KINOMEscan scanEDGE service)
Description: as §1

[33] = biological target: T33, AURKB (Homo sapiens, UniProt Q96GD4)
T33 construct: purchased Eurofins DiscoverX
Description: as §1

[34] = biological target: T34, PIK3C2B (Homo sapiens, UniProt O00750)
T34 construct: purchased Eurofins DiscoverX (KINOMEscan scanEDGE service)
Description: as §1

[35] = biological target: T35, FLT3 (Homo sapiens, UniProt P36888)
T35 construct: purchased Eurofins DiscoverX
Description: as §1

[36] = biological target: T36, ERK1 (Homo sapiens, UniProt P27361)
T36 construct: purchased Eurofins DiscoverX
Description: as §1

[37] = biological target: T37, JAK3(JH1domain-catalytic) (Homo sapiens, UniProt P52333)
T37 construct: JAK3(JH1domain-catalytic); purchased Eurofins DiscoverX
Description: as §1

[38] = biological target: T38, TGFBR1 (Homo sapiens, UniProt P36897)
T38 construct: purchased Eurofins DiscoverX KINOMEscan scanEDGE
Description: as §1

[39] = biological target: T39, IKK-alpha (Homo sapiens, UniProt O15111)
T39 construct: purchased Eurofins DiscoverX
Description: as §1

T21 sequence (Q86UX6 whole entry): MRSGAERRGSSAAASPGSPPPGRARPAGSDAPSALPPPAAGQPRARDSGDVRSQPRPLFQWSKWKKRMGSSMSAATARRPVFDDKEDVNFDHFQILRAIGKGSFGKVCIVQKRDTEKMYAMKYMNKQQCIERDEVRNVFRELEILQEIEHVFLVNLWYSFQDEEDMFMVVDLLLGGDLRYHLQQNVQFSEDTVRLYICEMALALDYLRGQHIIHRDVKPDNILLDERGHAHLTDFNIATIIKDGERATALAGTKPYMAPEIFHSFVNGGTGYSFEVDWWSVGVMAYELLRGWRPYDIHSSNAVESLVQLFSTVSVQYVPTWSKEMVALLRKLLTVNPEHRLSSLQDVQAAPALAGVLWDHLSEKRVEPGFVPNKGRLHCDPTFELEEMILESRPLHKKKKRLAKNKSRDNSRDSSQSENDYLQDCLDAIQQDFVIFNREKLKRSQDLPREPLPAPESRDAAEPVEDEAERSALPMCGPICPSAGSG
T5 sequence (P08069 31-1367): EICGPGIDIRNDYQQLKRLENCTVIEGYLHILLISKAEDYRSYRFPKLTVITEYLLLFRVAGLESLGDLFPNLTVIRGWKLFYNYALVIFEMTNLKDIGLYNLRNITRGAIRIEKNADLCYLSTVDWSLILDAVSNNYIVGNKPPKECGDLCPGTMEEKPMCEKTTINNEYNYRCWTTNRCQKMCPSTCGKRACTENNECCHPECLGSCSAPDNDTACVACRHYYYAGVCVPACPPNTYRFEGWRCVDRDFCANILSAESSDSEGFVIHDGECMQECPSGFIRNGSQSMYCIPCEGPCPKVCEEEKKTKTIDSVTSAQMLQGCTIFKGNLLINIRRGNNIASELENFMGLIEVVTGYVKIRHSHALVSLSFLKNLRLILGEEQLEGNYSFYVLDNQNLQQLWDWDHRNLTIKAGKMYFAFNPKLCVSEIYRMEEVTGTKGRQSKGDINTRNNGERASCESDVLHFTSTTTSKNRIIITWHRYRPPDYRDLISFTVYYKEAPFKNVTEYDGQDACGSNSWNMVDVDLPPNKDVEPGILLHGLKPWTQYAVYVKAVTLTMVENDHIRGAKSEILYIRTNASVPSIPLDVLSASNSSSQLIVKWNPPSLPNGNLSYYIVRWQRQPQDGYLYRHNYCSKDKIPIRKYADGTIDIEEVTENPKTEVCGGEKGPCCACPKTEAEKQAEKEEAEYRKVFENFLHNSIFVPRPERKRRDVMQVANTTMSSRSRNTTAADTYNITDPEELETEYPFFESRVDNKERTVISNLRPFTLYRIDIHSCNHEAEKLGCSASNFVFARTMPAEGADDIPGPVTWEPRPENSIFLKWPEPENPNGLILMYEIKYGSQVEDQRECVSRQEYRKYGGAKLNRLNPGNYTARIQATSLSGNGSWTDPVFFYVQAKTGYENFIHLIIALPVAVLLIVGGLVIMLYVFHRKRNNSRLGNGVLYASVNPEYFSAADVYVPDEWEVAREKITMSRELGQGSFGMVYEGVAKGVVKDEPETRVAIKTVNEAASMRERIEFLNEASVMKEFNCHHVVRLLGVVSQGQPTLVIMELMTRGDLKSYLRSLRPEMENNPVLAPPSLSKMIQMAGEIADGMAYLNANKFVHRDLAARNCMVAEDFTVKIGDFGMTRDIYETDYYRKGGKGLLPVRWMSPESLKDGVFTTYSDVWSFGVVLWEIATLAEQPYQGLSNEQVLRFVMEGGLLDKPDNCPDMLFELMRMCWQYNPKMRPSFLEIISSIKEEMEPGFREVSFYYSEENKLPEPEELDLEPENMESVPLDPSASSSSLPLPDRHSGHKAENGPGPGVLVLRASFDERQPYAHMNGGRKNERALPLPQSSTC
T19 sequence (P07949 29-1114): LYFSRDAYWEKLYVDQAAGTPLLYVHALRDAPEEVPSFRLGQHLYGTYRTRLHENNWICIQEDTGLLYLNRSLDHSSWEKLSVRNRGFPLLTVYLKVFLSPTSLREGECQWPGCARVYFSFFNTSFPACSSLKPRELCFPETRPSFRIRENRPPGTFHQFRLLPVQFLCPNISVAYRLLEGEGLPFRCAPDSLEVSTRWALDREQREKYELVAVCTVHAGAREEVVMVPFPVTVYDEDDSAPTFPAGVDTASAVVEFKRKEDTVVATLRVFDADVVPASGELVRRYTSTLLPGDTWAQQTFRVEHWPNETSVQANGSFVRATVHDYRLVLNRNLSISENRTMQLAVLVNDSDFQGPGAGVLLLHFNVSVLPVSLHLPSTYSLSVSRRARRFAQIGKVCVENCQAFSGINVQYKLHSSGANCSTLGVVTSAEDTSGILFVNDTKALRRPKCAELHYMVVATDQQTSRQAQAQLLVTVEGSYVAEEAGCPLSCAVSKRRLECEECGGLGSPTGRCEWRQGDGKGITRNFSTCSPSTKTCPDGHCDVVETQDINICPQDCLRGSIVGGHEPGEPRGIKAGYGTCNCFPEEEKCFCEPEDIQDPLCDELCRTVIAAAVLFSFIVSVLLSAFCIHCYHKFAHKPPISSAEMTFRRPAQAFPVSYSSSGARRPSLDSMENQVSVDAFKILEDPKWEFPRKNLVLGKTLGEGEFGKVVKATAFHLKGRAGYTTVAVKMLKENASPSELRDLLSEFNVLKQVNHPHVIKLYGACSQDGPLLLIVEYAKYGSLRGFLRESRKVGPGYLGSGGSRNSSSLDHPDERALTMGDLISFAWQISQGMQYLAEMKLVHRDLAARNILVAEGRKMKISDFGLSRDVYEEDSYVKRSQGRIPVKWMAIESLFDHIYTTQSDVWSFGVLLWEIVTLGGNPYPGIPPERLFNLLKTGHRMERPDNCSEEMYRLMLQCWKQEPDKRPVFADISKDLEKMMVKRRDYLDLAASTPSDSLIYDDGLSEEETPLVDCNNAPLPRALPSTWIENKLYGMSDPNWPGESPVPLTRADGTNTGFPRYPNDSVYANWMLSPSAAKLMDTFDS
T11 sequence (P50750 whole entry): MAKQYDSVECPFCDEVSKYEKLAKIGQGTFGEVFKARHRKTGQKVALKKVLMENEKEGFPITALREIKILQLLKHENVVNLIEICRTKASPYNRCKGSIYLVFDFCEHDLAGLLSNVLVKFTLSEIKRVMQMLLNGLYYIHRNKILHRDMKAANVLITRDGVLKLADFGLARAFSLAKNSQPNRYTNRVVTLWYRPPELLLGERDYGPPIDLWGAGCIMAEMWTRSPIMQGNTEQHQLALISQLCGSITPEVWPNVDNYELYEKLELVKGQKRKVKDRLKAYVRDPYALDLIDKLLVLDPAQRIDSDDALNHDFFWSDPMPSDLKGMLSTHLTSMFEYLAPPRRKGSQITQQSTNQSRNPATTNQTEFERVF
T37 sequence (P52333 822-1111 limits assumed): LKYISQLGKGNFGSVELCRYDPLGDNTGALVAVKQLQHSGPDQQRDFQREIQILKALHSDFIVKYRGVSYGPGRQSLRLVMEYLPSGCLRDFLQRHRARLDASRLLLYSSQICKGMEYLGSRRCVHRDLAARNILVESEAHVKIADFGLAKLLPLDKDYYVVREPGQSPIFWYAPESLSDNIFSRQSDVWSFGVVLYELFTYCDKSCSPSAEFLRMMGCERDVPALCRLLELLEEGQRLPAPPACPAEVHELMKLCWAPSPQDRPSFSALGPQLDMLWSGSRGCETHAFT
T20 sequence (P04629 33-796): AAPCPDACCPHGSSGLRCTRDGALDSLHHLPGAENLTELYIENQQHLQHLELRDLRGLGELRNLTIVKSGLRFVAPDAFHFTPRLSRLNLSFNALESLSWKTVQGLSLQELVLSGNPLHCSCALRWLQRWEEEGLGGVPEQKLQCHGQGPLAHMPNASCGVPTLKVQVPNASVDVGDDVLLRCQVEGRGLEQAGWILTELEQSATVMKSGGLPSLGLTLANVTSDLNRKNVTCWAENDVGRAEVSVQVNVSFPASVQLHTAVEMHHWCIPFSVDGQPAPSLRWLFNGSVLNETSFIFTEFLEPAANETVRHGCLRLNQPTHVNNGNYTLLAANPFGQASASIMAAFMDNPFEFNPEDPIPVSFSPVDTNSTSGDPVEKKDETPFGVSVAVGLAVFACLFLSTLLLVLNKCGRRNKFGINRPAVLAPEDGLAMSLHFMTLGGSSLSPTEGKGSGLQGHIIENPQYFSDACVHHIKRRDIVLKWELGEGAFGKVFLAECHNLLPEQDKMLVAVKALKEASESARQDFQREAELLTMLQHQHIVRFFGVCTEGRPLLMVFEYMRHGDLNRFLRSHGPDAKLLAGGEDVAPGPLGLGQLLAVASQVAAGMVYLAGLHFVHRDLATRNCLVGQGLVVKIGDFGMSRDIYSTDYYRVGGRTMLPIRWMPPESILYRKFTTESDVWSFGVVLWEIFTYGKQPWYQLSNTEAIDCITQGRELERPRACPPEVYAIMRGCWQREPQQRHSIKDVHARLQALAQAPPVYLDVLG
T10 sequence (P48730 whole entry): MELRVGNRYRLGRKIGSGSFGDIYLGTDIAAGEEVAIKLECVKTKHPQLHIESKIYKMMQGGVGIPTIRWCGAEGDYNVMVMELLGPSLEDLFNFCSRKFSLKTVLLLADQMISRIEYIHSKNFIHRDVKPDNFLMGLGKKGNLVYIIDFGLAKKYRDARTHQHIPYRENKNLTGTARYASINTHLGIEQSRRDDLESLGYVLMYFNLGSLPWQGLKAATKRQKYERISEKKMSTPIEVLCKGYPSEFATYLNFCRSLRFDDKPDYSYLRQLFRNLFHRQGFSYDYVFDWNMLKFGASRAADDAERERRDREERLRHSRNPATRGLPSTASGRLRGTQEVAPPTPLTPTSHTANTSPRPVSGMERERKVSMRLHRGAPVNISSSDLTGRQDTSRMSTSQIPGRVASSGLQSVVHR

COc1ccc2c3ccnc(C)c3n(CCN(C)C)c2c1.O=C(O)/C=C/C(=O)O [HTW_A_8 fumarate, 2-(7-methoxy-1-methyl-9H-pyrido[3,4-b]indol-9-yl)-N,N-dimethylethan-1-amine Fumarate Salt (2:3)]
remaining binding at 10 µM [1]: 95% | remaining binding at 10 µM [2]: 100% | remaining binding at 10 µM [3]: 87% | remaining binding at 10 µM [4]: 100% | remaining binding at 10 µM [5]: 85% | remaining binding at 10 µM [6]: 100% | remaining binding at 10 µM [7]: 100% | remaining binding at 10 µM [8]: 100% | remaining binding at 10 µM [9]: 15% | remaining binding at 10 µM [10]: 88% | remaining binding at 10 µM [11]: 100% | remaining binding at 10 µM [12]: 100% | remaining binding at 10 µM [13]: 100% | remaining binding at 10 µM [14]: 100% | remaining binding at 10 µM [15]: 33% | remaining binding at 10 µM [16]: 100% | remaining binding at 10 µM [17]: 100% | remaining binding at 10 µM [18]: 95% | remaining binding at 10 µM [19]: 95% | remaining binding at 10 µM [20]: 93% | remaining binding at 10 µM [21]: 94% | remaining binding at 10 µM [22]: 95% | remaining binding at 10 µM [23]: 93% | remaining binding at 10 µM [24]: 73% | remaining binding at 10 µM [25]: 79% | remaining binding at 10 µM [26]: 93% | remaining binding at 10 µM [27]: 100% | remaining binding at 10 µM [28]: 98% | remaining binding at 10 µM [29]: 100% | remaining binding at 10 µM [30]: 100% | remaining binding at 10 µM [31]: 99% | remaining binding at 10 µM [32]: 100% | remaining binding at 10 µM [33]: 100% | remaining binding at 10 µM [34]: 100% | remaining binding at 10 µM [35]: 85% | remaining binding at 10 µM [36]: 85% | remaining binding at 10 µM [37]: 100% | remaining binding at 10 µM [38]: 90% | remaining binding at 10 µM [39]: 100%
